In patent US20200069648A1, “HALOALLYLAMINE PYRAZOLE DERIVATIVE INHIBITORS OF LYSYL OXIDASES AND USES THEREOF” (Pharmaxis Ltd., priority 2017, published 2020):
Where a name gives a salt, the structure may show the parent alone.

molecular target: T1, Human LOXL2 (Homo sapiens, UniProt Q9Y4K0); experiment: LOXL2 amine oxidase inhibition, peroxidase-coupled Amplex Red assay; assay type: biochemical; details: 30 min preincubation at 37° C., putrescine substrate
T1 sequence (Q9Y4K0 26-774): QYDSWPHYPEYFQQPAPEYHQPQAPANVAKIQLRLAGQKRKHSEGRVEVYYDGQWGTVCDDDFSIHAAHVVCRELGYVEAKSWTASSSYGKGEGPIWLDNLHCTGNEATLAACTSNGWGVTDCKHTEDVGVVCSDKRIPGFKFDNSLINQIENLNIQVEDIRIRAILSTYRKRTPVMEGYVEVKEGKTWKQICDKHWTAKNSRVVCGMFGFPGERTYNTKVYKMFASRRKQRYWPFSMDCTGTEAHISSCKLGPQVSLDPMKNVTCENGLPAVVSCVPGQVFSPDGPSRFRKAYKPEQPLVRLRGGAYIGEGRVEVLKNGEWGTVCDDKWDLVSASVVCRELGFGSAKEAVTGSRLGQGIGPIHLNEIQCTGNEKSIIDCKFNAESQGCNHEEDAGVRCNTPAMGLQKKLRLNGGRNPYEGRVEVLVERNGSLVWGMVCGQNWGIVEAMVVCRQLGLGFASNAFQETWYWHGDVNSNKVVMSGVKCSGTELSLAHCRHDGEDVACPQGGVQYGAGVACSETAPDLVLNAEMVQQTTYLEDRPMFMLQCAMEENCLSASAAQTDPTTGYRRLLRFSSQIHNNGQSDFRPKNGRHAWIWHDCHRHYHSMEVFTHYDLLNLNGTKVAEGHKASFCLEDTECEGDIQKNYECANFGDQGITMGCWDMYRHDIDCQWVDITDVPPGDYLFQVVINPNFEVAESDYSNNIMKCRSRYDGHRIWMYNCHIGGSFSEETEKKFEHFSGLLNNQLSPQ
Text: (§1) Method to Determine the Ability of Compounds of the Invention to Inhibit LOX and LOXL1-4 from Different Sources
(§2) Lysyl oxidase (LOX) is an extracellular copper dependent enzyme which oxidizes peptidyl lysine and hydroxylysine residues in collagen and lysine residues in elastin to produce peptidyl alpha-aminoadipic-delta-semialdehydes. […] There are five LOX family members; these are LOX, LOXL1, LOXL2, LOXL3 and LOXL4. LOX and LOXL family members can be acquired as recombinant active proteins from commercial sources, or extracted from animal tissues like bovine aorta, tendons, pig skin; or prepared from cell cultures. The inhibitory effects of the compounds of the present invention were tested against the given LOX-LOXL preparation using a high-throughput coupled colorimetric method (Holt A. and Palcic M., A peroxidase-coupled continuous absorbance plate-reader assay for flavin monoamine oxidases, copper-containing amine oxidases and related enzymes. Nat. Protoc. 2006; 1: 2498-2505). The assay was developed using either 384 or 96 well format. Briefly, in a standard 384 well plate assay 25 μL of a dilution of any of the isoenzymes and orthologues in 1.2 M urea, 50 mM sodium borate buffer (pH 8.2) were added into each well in the presence of 1 μM mofegiline and 0.5 mM pargyline (to inhibit SSAO and MAO-B and MAO-A, respectively). Test compounds were dissolved in DMSO and tested in a Concentration Response Curve (CRC) with 11 data points, typically in the micromolar or nanomolar range after incubation with the enzyme for 30 min at 37° C. Twenty five μL of a reaction mixture containing twice the KM concentration of putrescine (Sigma Aldrich, e.g. 20 mM for LOX, or 10 mM for LOXL2 and LOXL3), 120 μM Amplex Red (Sigma Aldrich) and 1.5 U/mL horseradish peroxidase (Sigma Aldrich) prepared in 1.2 M urea, 50 mM sodium borate buffer (pH 8.2) were then added to the corresponding wells. The above volumes were doubled in the case of 96 wells plate. The fluorescence (RFU) was read every 2.5 min for 30 min at a range of temperatures from 37° to 45° C., excitation 565 nm and emission 590 (Optima; BMG labtech). The slope of the kinetics for each well was calculated using MARS data analysis software (BMG labtech) and this value was used to deduce the IC50 value (Dotmatics).

Structure (SMILES) | IC50 [µM]
Cc1nn(C/C(F)=C/CN)c(C(C)O)c1Cc1ccc(S(=O)(=O)N(C)C)c(Cl)c1 (centres unmarked) [Compound 36, (Z)-4-((1-(4-amino-2-fluorobut-2-en-1-yl)-5-(1-hydroxyethyl)-3-methyl-1H-pyrazol-4-yl)methyl)-2-chloro-N,N-dimethylbenzenesulfonamide] | < 1

molecular target: T2, Bovine LOX (Bos taurus, UniProt P33072); experiment: LOX amine oxidase inhibition, peroxidase-coupled Amplex Red assay; assay type: biochemical; details: 30 min preincubation at 37° C., putrescine substrate
T2 sequence (P33072 170-418): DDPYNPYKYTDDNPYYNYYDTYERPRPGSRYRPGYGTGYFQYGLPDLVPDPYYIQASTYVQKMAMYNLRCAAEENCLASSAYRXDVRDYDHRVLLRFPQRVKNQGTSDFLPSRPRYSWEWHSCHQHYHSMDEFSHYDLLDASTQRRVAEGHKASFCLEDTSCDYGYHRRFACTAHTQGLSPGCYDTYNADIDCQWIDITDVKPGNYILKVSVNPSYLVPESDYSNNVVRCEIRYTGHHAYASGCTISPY
Text: as §1
as §2, with “Test compounds were dissolved in DMSO and tested in a Concentration Response Curve (CRC) with 11 data points, typically in the micromolar or nanomolar range after incubation with the enzyme for 30 min at 37° C.” left out

Structure (SMILES) | IC50 [µM]
Cc1nn(C/C(F)=C/CN)c(C(C)O)c1Cc1ccc(S(=O)(=O)N(C)C)c(Cl)c1 (centres unmarked) [Compound 36, (Z)-4-((1-(4-amino-2-fluorobut-2-en-1-yl)-5-(1-hydroxyethyl)-3-methyl-1H-pyrazol-4-yl)methyl)-2-chloro-N,N-dimethylbenzenesulfonamide] | > 10

tested on: not given; experiment: not given; details: not given

Structure (SMILES) | melting point [°C]
Cc1nn(C/C(F)=C/CN)c(C)c1Cc1ccc(S(=O)(=O)N(C)C)cc1 (as salt: hydrochloride) [Compound 2, (Z)-4-((1-(4-amino-2-fluorobut-2-en-1-yl)-3,5-dimethyl-1H-pyrazol-4-yl)methyl)-N,N-dimethylbenzenesulfonamide hydrochloride] | 209 to 211
Cc1nn(C/C(F)=C/CN)c(C)c1Cc1ccc(S(=O)(=O)N(C)C)cc1Cl (as salt: hydrochloride) [Compound 3, (Z)-4-((1-(4-amino-2-fluorobut-2-en-1-yl)-3,5-dimethyl-1H-pyrazol-4-yl)methyl)-3-chloro-N,N-dimethylbenzenesulfonamide hydrochloride] | 185 to 187
Cc1nn(C/C(F)=C/CN)c(C)c1Cc1ccc(S(C)(=O)=O)cc1 (as salt: hydrochloride) [Compound 4, (Z)-4-(3,5-dimethyl-4-(4-(methylsulfonyl)benzyl)-1H-pyrazol-1-yl)-3-fluorobut-2-en-1-amine hydrochloride] | 127 to 137
Cc1nn(C/C(F)=C/CN)c(C)c1Cc1ccc(S(=O)(=O)N2CCOCC2)cc1 (as salt: hydrochloride) [Compound 6, (Z)-4-(3,5-dimethyl-4-(4-(morpholinosulfonyl)benzyl)-1H-pyrazol-1-yl)-3-fluorobut-2-en-1-amine hydrochloride] | 190 to 197
Cc1nn(C/C(F)=C/CN)c(C)c1Cc1ccc(S(=O)(=O)N2CCCC2)cc1 (as salt: hydrochloride) [Compound 7, (Z)-4-(3,5-dimethyl-4-(4-(pyrrolidin-1-ylsulfonyl)benzyl)-1H-pyrazol-1-yl)-3-fluorobut-2-en-1-amine hydrochloride] | 181 to 184
Cc1nn(C/C(F)=C/CN)c(C)c1Cc1ccc(S(=O)(=O)N(C)C)c2ccccc12 (as salt: hydrochloride) [Compound 9, (Z)-4-((1-(4-amino-2-fluorobut-2-en-1-yl)-3,5-dimethyl-1H-pyrazol-4-yl)methyl)-N,N-dimethyl naphthalene-1-sulfonamide hydrochloride] | 70 to 80
Cc1nn(Cc2ccc(S(=O)(=O)N(C)C)cc2)c(C)c1C/C(F)=C/CN (as salt: hydrochloride) [Compound 10, (Z)-4-((4-(4-amino-2-fluorobut-2-en-1-yl)-3,5-dimethyl-1H-pyrazol-1-yl)methyl)-N,N-dimethylbenzenesulfonamide hydrochloride] | 180 to 185
Cc1nn(C/C(F)=C/CN)c(C)c1Cc1ccc(C(=O)N(C)C)cc1 (as salt: hydrochloride) [Compound 14, (Z)-4-((1-(4-amino-2-fluorobut-2-en-1-yl)-3,5-dimethyl-1H-pyrazol-4-yl)methyl)-N,N-dimethylbenzamide hydrochloride] | 75 to 82
Cc1nn(C/C(F)=C/CN)c(C)c1Cc1ccc(S(C)(=O)=O)c(Cl)c1 (as salt: hydrochloride) [Compound 16, (Z)-4-(4-(3-chloro-4-(methylsulfonyl)benzyl)-3,5-dimethyl-1H-pyrazol-1-yl)-3-fluorobut-2-en-1-amine hydrochloride] | 105 to 115
CNS(=O)(=O)c1ccc(Cn2nc(C)c(C/C(F)=C/CN)c2C)c(Cl)c1 (as salt: hydrochloride) [Compound 20, (Z)-4-((4-(4-amino-2-fluorobut-2-en-1-yl)-3,5-dimethyl-1H-pyrazol-1-yl)methyl)-3-chloro-N-methylbenzenesulfonamide hydrochloride] | 80 to 86
CNS(=O)(=O)c1ccc(Cn2nc(C)c(C/C(F)=C/CN)c2C)c(C(F)(F)F)c1 (as salt: hydrochloride) [Compound 23, (Z)-4-((4-(4-amino-2-fluorobut-2-en-1-yl)-3,5-dimethyl-1H-pyrazol-1-yl)methyl)-N-methyl-3-(trifluoromethyl)benzenesulfonamide hydrochloride] | 171 to 172

molecular target: T3, Recombinant human MAO-B (Homo sapiens, UniProt P27338); experiment: Human recombinant MAO-B inhibition; assay type: biochemical; details: benzylamine 100 μM
T3 construct: purchased Sigma Aldrich
T3 sequence (P27338 1-520): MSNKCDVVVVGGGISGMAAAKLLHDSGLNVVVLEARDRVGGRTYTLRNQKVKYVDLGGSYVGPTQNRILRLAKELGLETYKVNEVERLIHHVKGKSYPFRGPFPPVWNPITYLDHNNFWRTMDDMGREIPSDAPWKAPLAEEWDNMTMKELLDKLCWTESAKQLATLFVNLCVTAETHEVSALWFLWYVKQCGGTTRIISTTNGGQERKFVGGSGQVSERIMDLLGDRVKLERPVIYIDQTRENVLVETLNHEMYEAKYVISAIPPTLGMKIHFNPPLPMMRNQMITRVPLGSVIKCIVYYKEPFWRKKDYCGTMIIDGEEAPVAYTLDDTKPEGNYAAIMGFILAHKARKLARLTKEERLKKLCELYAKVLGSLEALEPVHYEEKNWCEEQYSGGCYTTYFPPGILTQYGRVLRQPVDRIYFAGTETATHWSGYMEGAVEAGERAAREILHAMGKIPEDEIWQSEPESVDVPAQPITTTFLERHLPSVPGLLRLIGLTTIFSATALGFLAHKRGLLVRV
Experimental: Method to Determine the Ability of Compounds of Formula I to Inhibit Human Recombinant MAO-B
The specificity of the compounds of this invention was tested by determining their ability to inhibit MAO-B activities in vitro. Recombinant human MAO-B (0.06 mg/mL; Sigma Aldrich) was used as source of MAO-B enzyme activities. The assay was performed in a similar way as for human SSAO/VAP-1 (Example 46) except, the substrate benzylamine was used at 100 μM.

Structure (SMILES) | IC50 [µM]
Cc1nn(C/C(F)=C/CN)c(C(C)O)c1Cc1ccc(S(=O)(=O)N(C)C)c(Cl)c1 (centres unmarked) [Compound 36, (Z)-4-((1-(4-amino-2-fluorobut-2-en-1-yl)-5-(1-hydroxyethyl)-3-methyl-1H-pyrazol-4-yl)methyl)-2-chloro-N,N-dimethylbenzenesulfonamide] | > 30
